In patent US20050113318A1, “Combination of dehydroepiandrosterone or dehydroepiandrosterone-sulfate with a beta-agonist bronchodilator for treatment of asthma or chronic obstructive pulmonary disease” (priority 2003, published 2005):
Several values for one entry are separate records, joined by “and”; a condition that tells them apart may be missing. Identical values can stand only once.

Legend:
[1] = Emitted dose studies with dry powder inhalers; assay type: physicochemical; details: for Emitted Dose: single runs
Procedure: DHEA-S powder was collected in Nephele tubes and assayed by HPLC. Triplicate experiments were performed at each airflow rate for each of the three dry powder inhalers tested (Rotahaler, Diskhaler and IDL's DPI devices). A Nephele tube was fitted at one end with a glass filter (Gelman Sciences, Type A/E, […]), which in turn was connected to the airflow line to collect the emitted dose of the drug from the respective dry powder inhaler being tested. A silicone adapter, with an opening to receive the mouthpiece of the respective dry powder inhaler being tested at the other end of the Nephele tube was secured. A desired airflow, of 30, 60, or 90 L/min, was achieved through the Nephele tube. Each dry powder inhaler's mouthpiece was inserted then into the silicone rubber adapter, and the airflow was continued for about four s after which the tube was removed and an end-cap screwed onto the end of each tube. The end-cap of the tube not containing the filter was removed and 10 ml of an HPLC grade water-acetonitrile solution (1:1) added to the tube, the end-cap reattached, and the tube shaken for 1-2 minutes. The end-cap then was removed from the tube and the solution was transferred to a 10 ml plastic syringe fitted with a filter (Cameo 13N Syringe Filter, Nylon, 0.22 μm). An aliquot of the solution was directly filtered into an HPLC vial for later drug assay via HPLC. […] When the micronized DHEA-S (only vial B used), was weighed for placement into the gelatin capsule or blister, there appeared to be a few aggregates of the micronized powder. […] Table 2 summarizes the results for the Rotahaler experiments at 3 different flow rates, for the Diskhaler experiments at 3 different flow rates, and of the multi-dose experiments at 3 different flow rates.

[2] = Particle size of DHEA-S powders (laser diffraction, light microscope); assay type: physicochemical; details: for mean particle size: spray dried, two batches
Procedure: Approximately 1 g sample was passed through the jet mill, once, and approximately 2 g sample were passed through the jet mill twice. […] The resulting solution was sonicated for 3 minutes and appeared fully dispersed. The dispersed solutions were tested on a Malvern Mastersizer X with a small volume sampler (SVS) attachment. One sample of dispersed material was tested 5 times. The median particle size or D (v, 0.5) of unmilled material was 52.56 μm and the % RSD (relative standard deviation) was 7.61 for the 5 values. The D (v, 0.5) for a single pass through the jet mill was 3.90 μm and the % RSD was 1.27, and the D (v, 0.5) from a double pass through the jet mill 3.25 μm and the % RSD was 3.10.
The solution was spray-dried with a B-191 Mini Spray-Drier (Buchi, Flawil, Switzerland) with an inlet temperature of 55° C., outlet temperature of 40° C., at 100% aspirator, at 10% pump, nitrogen flow at 40 mbar and spray flow at 600 units. The spray-dried product was suspended in hexane and Span85 surfactant added to reduce agglomeration. The dispersions were sonicated with cooling for 3-5 minutes for complete dispersion and the dispersed solutions tested on a Malvern Mastersizer X with a Small Volume Sampler (SVS) attachment. […] Visual examination by light microscope of the dispersions of each batch confirmed that spray drying produced small respirable size particles. The mean particle size was 2.4 μm and 2.0 μm for each batch, respectively.
Surface area is determined using five point BET analyses are performed with nitrogen as the adsorbing gas (P/Po=0.05 to 0.30) using a Micromeritics TriStar surface area analyzer. Particle size distributions are measured by laser diffraction using a Micromeritics Saturn Digisizer where the particles are suspended in mineral oil th sodium dioctyl sodium sulfosuccinate as a dispersing agent. Drug substance water content is measured by Karl Fischer titration (Schott Titroline KF). Pure water is used as the standard and all relative standard deviations for triplicates are less than 1%. Powder is added directly to the titration media.

[3] = Diskhaler (2nd study), 87.8 L/min
[4] = IDL Multi-Dose (2nd study), 87.8 L/min

## C[C@]12CC[C@H](OS(=O)(=O)[O-])CC1=CC[C@@H]1[C@@H]2CC[C@]2(C)C(=O)CC[C@@H]12.[Na+] [Anhydrous DHEA-S]
[1]; [3]
  Emitted Dose, Average: 59.1%
  Emitted Dose: 57.9% and 59.9% and 59.5%
[1]; Diskhaler, 30 L/min
  Emitted Dose, Average: 58.6%
  Emitted Dose: 53.8% and 53.4% and 68.7%
[1]; Diskhaler, 60 L/min
  Emitted Dose, Average: 68.2%
  Emitted Dose: 63.4% and 38.9% and 58.0%
[1]; Diskhaler, 87.8 L/min
  Emitted Dose, Average: 51.3%
  Emitted Dose: 65.7% and 41.6% and 46.5%
[1]; [4]
  Emitted Dose, Average: 84.8%
  Emitted Dose: 85.7% and 84.6% and 84.0%
[1]; IDL Multi-Dose, 30 L/min
  Emitted Dose, Average: 85.4%
  Emitted Dose: 78.9% and 88.2% and 89.2%
[1]; IDL Multi-Dose, 60 L/min
  Emitted Dose, Average: 84.0%
  Emitted Dose: 78.8% and 83.7% and 89.6%
[1]; IDL Multi-Dose, 87.8 L/min
  Emitted Dose, Average: 72.6%
  Emitted Dose: 71.3% and 79.0% and 67.4%
[1]; Rotahaler (2nd study), 87.8 L/min
  Emitted Dose, Average: 31.5%
[1]; Rotahaler, 30 L/min
  Emitted Dose, Average: 34.7%
[1]; Rotahaler, 60 L/min
  Emitted Dose, Average: 57.3%
  Emitted Dose: 58.1% and 68.2% and 45.7%
[1]; Rotahaler, 87.8 L/min
  Emitted Dose, Average: 69.7%
  Emitted Dose: 73.2% and 67.1% and 68.7%
[2]; double pass through the jet mill
  median particle size D (v, 0.5): 3.25 μm
[2]; single pass through the jet mill
  median particle size D (v, 0.5): 3.90 μm
[2]; Malvern Mastersizer X
  mean particle size: 5.07±0.70 μm and 6.66±0.91 μm
[2]; visual examination by light microscope
  mean particle size: 2.4 μm and 2.0 μm
[2]; unmilled material, Malvern Mastersizer X
  median particle size D (v, 0.5): 52.56 μm
